Here are results for one compound from ChEMBL document CHEMBL5113460, “Discovery of dual inhibitors of topoisomerase I and Cyclooxygenase-2 for colon cancer therapy” (Eur J Med Chem, 2022).

Data set [1] relates to HT-29. The data set is described as follows: Antitumor activity against human HT-29 cells xenografted in BALB/c mouse assessed as reduction of tumor weight at 15 mg/kg, ip bid and measured after 14 days. The data set is classed as functional, organism-based. Conditions: time 14.0 day. For orientation: Xenograft models place foreign cells or tissue in a host animal.
Data set [2] deals with RKO. The data set is described as follows: Antiproliferative activity against human RKO cells assessed as inhibition of cell colonies at 0.37 to 1.5 uM incubated for 7 days by crystal violet staining based microscopic analysis. Format: functional. The conditions noted are these: dose 0.37-1.5 µM, time 7.0 day.
Data set [3] concerns HT-29. The data set can be described thus: Antiproliferative activity against human HT-29 cells assessed as inhibition of cell colonies at 0.25 to 1 uM incubated for 7 days by crystal violet staining based microscopic analysis. Format: functional. The conditions noted are these: dose 0.25-1 µM, time 7.0 day.
The subject of data set [4] is RKO. The data set is described as follows: Induction of apoptosis in human RKO cells assessed as increase in cleaved caspase-3 protein level at 3 to 9 uM incubated for 24 hrs by western blot analysis. Format: functional, cell-based. Conditions: dose 3-9 µM. A general note: Immunoblotting shows a protein as a band on a membrane.
The subject of data set [5] is RKO. The data set is described as follows: Induction of apoptosis in human RKO cells assessed as late apoptotic cells at 6 uM incubated for 24 hr by Annexin-V-FITC/PI staining based flow cytometry (Rvb= 4.49%). Format: functional.
Data set [6] concerns RKO. The data set is described as follows: Induction of apoptosis in human RKO cells assessed as increase in cleaved caspase-9 protein level at 3 to 9 uM incubated for 24 hrs by western blot analysis. The conditions noted are these: dose 3-9 µM. Format: functional, cell-based.
A further data set has as its system HCT-116. The data set is described as follows: Antitumor activity against human HCT-116 cells assessed as inhibition of cell proliferation incubated for 72 hrs by MTT assay. The data set is classed as functional, cell-based. Conditions: HCT-116, 72 h.
Data set [7] deals with RKO. The data set is described as follows: Induction of apoptosis in human RKO cells assessed as reduction in mitochondrial membrane potential at 3 to 9 uM by TMRE staining based flow cytometry. Format: functional, cell-based. Conditions: dose 3-9 µM. Background: In flow cytometry, cells or beads pass a laser one at a time.
The target in data set [8] is T1, DNA topoisomerase 1 (Homo sapiens) (UniProt P11387).
T1 sequence (whole entry): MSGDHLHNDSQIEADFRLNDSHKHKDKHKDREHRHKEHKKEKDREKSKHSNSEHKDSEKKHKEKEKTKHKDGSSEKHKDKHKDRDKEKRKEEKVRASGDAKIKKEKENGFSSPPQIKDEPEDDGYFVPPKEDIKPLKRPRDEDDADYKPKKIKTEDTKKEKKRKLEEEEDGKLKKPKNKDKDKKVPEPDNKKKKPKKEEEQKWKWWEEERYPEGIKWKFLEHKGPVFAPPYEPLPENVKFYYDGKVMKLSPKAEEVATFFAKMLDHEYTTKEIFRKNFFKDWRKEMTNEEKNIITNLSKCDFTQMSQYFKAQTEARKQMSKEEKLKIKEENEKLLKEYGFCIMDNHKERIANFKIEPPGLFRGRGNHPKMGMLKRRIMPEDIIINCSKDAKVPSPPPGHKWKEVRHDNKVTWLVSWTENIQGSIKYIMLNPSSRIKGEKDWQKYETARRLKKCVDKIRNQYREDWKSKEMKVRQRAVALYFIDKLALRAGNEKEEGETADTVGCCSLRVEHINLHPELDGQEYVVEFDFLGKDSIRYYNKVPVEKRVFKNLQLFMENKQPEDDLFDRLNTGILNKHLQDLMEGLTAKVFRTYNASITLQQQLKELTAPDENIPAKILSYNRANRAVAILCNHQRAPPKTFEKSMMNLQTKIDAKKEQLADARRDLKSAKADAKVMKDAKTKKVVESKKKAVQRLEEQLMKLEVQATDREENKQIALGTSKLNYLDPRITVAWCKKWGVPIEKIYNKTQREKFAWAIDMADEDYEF
The data set is described as follows: Inhibition of topoisomerase 1 (unknown origin) assessed as relaxation of supercoiled plasmid pBR322 DNA at 10 uM incubated for 45 mins by ethidium bromide staining based agarose gel electrophoresis.

The test system of data set [9] is RKO. The data set is described as follows: Antitumor activity against human RKO cells assessed as inhibition of cell proliferation incubated for 72 hrs by MTT assay. Format: functional, cell-based.
For data set [10], the system named is HT-29. The data set is described as follows: Antitumor activity against human HT-29 cells xenografted in BALB/c mouse assessed as inhibition of tumor growth at 30 mg/kg, ip bid and measured after 14 days by vernier caliper method. The data set is classed as functional. Conditions: HT-29, 336 h, time 14 day, read-out: TGI.
The target of data set [11] is Prostaglandin G/H synthase 2 (Homo sapiens) (UniProt P35354). The data set can be described thus: Inhibition of COX-2 (unknown origin) at 3 uM.
Data set [12] can be described thus: Water solubility of compound by HPLC analysis. The data set is classed as physicochemical.
Data set [13] addresses T1, DNA topoisomerase 1 (Homo sapiens). The data set can be described thus: Poison activity at topoisomerase 1 (unknown origin) assessed as s increase in nicked DNA formation at 1 mM using supercoiled plasmid DNA as substrate at 200 to 400 uM incubated for 35 mins by agarose gel electrophoresis.
Data set [14] concerns RKO. The data set is described as follows: Antiproliferative activity against human RKO cells assessed as inhibition of cell proliferation incubated for 24 to 72 hrs by MTT assay. The data set is classed as functional, cell-based. Conditions: time 24-72 hrs, DDE = dose-dependent effect.
Data set [15] has as its system HT-29. The data set can be described thus: Induction of apoptosis in human HT-29 cells assessed as viable cells at 8 uM incubated for 24 hr by Annexin-V-FITC/PI staining based flow cytometry (Rvb= 83.5%). The data set is classed as functional. Conditions: read-out: Activity.

Values after ≈ are worked out from the molar mass of the structure shown. Active and inactive are the calls of the source. No cut-off for these calls is given here.

Chain of Prostaglandin G/H synthase 2 (Homo sapiens) (P35354 whole entry, looked up): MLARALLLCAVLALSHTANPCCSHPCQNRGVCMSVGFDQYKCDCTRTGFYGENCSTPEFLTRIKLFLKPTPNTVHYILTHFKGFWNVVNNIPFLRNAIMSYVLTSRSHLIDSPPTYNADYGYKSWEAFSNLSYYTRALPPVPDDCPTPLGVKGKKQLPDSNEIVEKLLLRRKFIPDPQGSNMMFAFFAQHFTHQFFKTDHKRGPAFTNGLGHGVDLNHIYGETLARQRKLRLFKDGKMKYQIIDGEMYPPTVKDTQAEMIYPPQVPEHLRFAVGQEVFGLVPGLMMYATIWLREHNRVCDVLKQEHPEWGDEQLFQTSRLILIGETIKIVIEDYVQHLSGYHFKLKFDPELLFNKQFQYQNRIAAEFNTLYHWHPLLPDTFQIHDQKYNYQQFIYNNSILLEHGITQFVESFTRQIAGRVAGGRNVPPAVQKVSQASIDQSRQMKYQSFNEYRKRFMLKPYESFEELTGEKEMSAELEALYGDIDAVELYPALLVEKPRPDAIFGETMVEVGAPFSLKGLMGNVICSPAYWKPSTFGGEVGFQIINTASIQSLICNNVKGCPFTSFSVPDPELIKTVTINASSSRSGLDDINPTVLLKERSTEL

Consider `Cc1c(Cl)cccc1Nc1ccccc1C(=O)Nc1ccc(N2CCNCC2)cc1`, for which the result in the data set with HT-29 [1], in the data set with RKO [2], with HT-29 [3], in the data set with RKO [4], in the data set with RKO [6] and with RKO [7] was Active. Further, in [13], the outcome was Active. Moreover, the values for the Activity with RKO [5] and with RKO [14] were 6.88% and “Dde”, respectively. Moreover, the figures for the half-maximal inhibitory concentration (IC50) in the data set on HCT-116 and in the data set with RKO [9] were 8.42 µM and 2.06 µM, respectively. Further, the inhibition – broadly, the drop in the measured response relative to a control, in per cent – was found to be 69% in data set [8] and 74.2% in [11]. Besides, the inhibition in vivo at 30 mg/kg in the data set with HT-29 [10] was determined as 57.9%. In data set [12], the concentration in solution (solubility) was 32.3 µg/mL (≈ 76.8 µM). Besides, the viability at 8 µM in the data set on HT-29 [15] is 68.9%.
